Source: US20060009433A1, “Neuroprotective spirostenol pharmaceutical compositions” (priority 2003, published 2006)
“Also recorded” adds a separate entry of the source.

Assays:
NT2 cells [1] = assay: BrdU assay, NT2 cell proliferation; assay type: cell-based, human
NT2 cells [2] = assay: LDH and MTT assays, NT2 cell viability; details: LDH and MTT; 25-50 μM; 3-day treatment
rat PC12 neuronal cells = assay: MTT assay, Aβ1-42-induced cytotoxicity in PC12 cells (Example I); details: MTT; for neuroprotective effect against Aβ-induced neurotoxicity: Aβ1-42
NT2 cells [3] = assay: NT2 cell differentiation, phase-contrast morphology; assay type: cell-based, human; details: 25 μM; 3, 6 and 12 days (comparators 6 days)

Row | Compound | NT2 cell proliferation at 50 μM (NT2 cells [1]) | cytotoxicity at high concentrations (NT2 cells [2]) | neuroprotective effect against Aβ-induced neurotoxicity (rat PC12 neuronal cells) | PC12 cell viability, steroid alone (rat PC12 neuronal cells; absence of Aβ) | NT2 cell proliferation at 25 μM (NT2 cells [1]; 25 μM) | effect on NT2 cell morphology (differentiation) (NT2 cells [3]) | PC12 cell viability, steroid alone at 100 μM (rat PC12 neuronal cells; 100 μM steroid)
1 | CC(=O)[C@H]1CC[C@H]2[C@@H]3CC=C4C[C@@H](O)CC[C@]4(C)[C@H]3CC[C@]12C [pregnenolone, 5-pregnen-3β-ol-20-one] | significantly inhibited | cytotoxic | could not be replicated | toxic to the cells | – | – | –
2 | CC(C)CC[C@H](O)[C@@H](C)[C@H]1CC[C@H]2[C@@H]3CC=C4C[C@@H](O)CC[C@]4(C)[C@H]3CC[C@]12C [22S-hydroxycholesterol, 5-cholesten-3β, 22S-diol] | significantly inhibited | cytotoxic | failed to protect; also recorded: inactive | – | significantly inhibited | could not be replicated | neurotoxic
